# Where “and” joins values, the source holds several entries; their conditions need not be identical. Identical values can stand only once.
# Assays:
# [1] = test system: H22 murine hepatic cancer xenograft; assay: In vivo tumor growth, H22 murine hepatic cancer xenograft model (Example 4); parameters: species or system Mouse (Mus Musculus)
# Protocol: (§1) Experiments using the murine H22, CT-26 and EMT-6 xenograft models were performed as described below.
# (§2) Cells were cultured in RPMI-1640 medium supplemented with 10% FBS at 37° C. in an atmosphere of 5% CO2 in air. The tumor cells were routinely subcultured three times weekly. The cells that grew in an exponential growth phase were harvested and counted for tumor inoculation.
# (§3) Mice (female, 6-8 weeks old) were inoculated subcutaneously at the right flank with the tumor cells (H22, EMT-6, or CT-26) in 0.1 mL PBS for tumor development. When the tumor volume reached approximately 60-80 mm^3, the mice were grouped randomly according to the animal body weight and tumor volume. Each group had 5-8 tumor-bearing mice.
# (§4) The major endpoint was to determine if tumor growth could be delayed or mice could be cured. Tumor volume was measured three times weekly in two dimensions using a caliper, and the volume was expressed in mm^3 using the formula: V=0.5 a×b^2, where a and b are the long and short diameters of the tumor, respectively. The T/C value (in percent) was an indication of antitumor effectiveness, where T and C were the mean volume of the treated and control groups, respectively, on a given day. The T-C value was calculated according to TV. T-C was calculated with T as the median time (in days) required for the treatment group tumors to reach a predetermined size (e.g., TV as 1000 mm^3), and C as the median time (in days) for the control group tumors to reach the same size. The body weights were measured and recorded at the same time to observe the toxicity of the compounds. The animals were sacrificed at the termination of the study.
# (§5) Summary statistics, including mean and the standard error of the mean (SEM), are provided for the tumor volume of each group at each time point. A two-way analysis of variance (ANOVA) was performed to compare body weight, tumor volume and tumor volume change. A one-way ANOVA was performed to compare tumor weight. All data were analyzed using GraphPad Prism 5. p<0.05 was considered to be statistically significant.
# The anti-cancer activity of amperozide and nepicastat was evaluated in a H22 murine hepatic cancer xenograft model according to the experimental procedure described in Example 2. Anti-cancer activity was evaluated by measuring changes in tumor volume.
# [2] = test system: H22 murine hepatic cancer xenograft; assay: In vivo tumor growth, H22 murine hepatic cancer xenograft model, compared with anti-PD-1 mAb (Example 5); parameters: species or system Mouse (Mus Musculus); settings: p.o.; for Tumor Volume (mm^3): QD x 20 days; for T/C (%) / TGI (%) tumor growth inhibition: QD
# Protocol: as §1, §2, §3, §4, §5
# The anti-cancer activity of nepicastat, etamicastat and anti-PD-1 monoclonal antibody (mAb) was evaluated in a H22 murine hepatic cancer xenograft model according to the experimental procedure described in Example 2.
# [3] = clinical dosage of nepicastat 160 mg/day; read-out: plasma maximal concentration (Cmax); cited from earlier work
# [4] = test system: EMT-6 murine breast cancer xenograft; assay: In vivo tumor growth, EMT-6 murine breast cancer xenograft model (Example 6); parameters: species or system Mouse (Mus Musculus); settings: Nepicastat 50 mg/kg, QD, oral
# Protocol: as §1, §2, §3, §4, §5
# (§6) Nepicastat was also tested for in vivo tumor growth inhibition in CT-26 murine colon cancer and EMT-6 murine breast cancer xenograft models. Nepicastat was administered orally.
# [5] = test system: CT-26 murine colon cancer xenograft; assay: In vivo tumor growth, CT-26 murine colon cancer xenograft model (Example 6); parameters: species or system Mouse (Mus Musculus); settings: Nepicastat 50 mg/kg, QD, oral
# Protocol: as §1, §2, §3, §4, §5, §6
# [6] = test system: H22 murine hepatocarcinoma cell line; assay: In vitro cell proliferation assay (CellTiter-Glo) in H22 murine hepatocarcinoma cell line; assay type: cell-based
# Protocol: Methods: • (1) Cells were cultured in RPMI-1640 medium supplemented with 10% FBS, 100 U/ml penicillin, and […] streptomycin at 37° C. and 5% CO2 atmosphere. […] The anti-proliferative activity of amperozide, nepicastat, and paclitaxel was tested in the H22 murine hepatocarcinoma cell line according to the experimental procedure described in Example 1.
# [7] = Nepicastat 48 mg/kg, day 19, listed as nepicastat
compound,measurement,setting,value
"NCc1c[nH]c(=S)n1[C@H]1CCc2c(F)cc(F)cc2C1 [Nepicastat, nepicastat]",T-C (days) (Reach 1000 mm^3),[1]; Nepicastat 16 mg/kg,1 days
same,Tumor Volume,"[1]; Nepicastat 16 mg/kg, day 5",80 ± 6 mm^3
same,Tumor Volume,"[1]; Nepicastat 16 mg/kg, day 7",140 ± 13 mm^3
same,Tumor Volume,"[1]; Nepicastat 16 mg/kg, day 9",260 ± 25 mm^3
same,Tumor Volume,"[1]; Nepicastat 16 mg/kg, day 12",542 ± 75 mm^3
same,Tumor Volume,"[1]; Nepicastat 16 mg/kg, day 14",982 ± 111 mm^3
same,Tumor Volume,"[1]; Nepicastat 16 mg/kg, day 16","1,454 ± 173 mm^3"
same,T/C (%),"[1]; Nepicastat 16 mg/kg, day 19",84.1%
same,TGI (%) tumor growth inhibition,"[1]; Nepicastat 16 mg/kg, day 19",15.9%
same,Tumor Volume,"[1]; Nepicastat 16 mg/kg, day 19","2,546 ± 306 mm^3"
same,T-C (days) (Reach 1000 mm^3),[1]; Nepicastat 48 mg/kg,2 days
same,Tumor Volume,"[1]; Nepicastat 48 mg/kg, day 5",80 ± 6 mm^3
same,Tumor Volume,"[1]; Nepicastat 48 mg/kg, day 7",146 ± 12 mm^3
same,Tumor Volume,"[1]; Nepicastat 48 mg/kg, day 9",249 ± 26 mm^3
same,Tumor Volume,"[1]; Nepicastat 48 mg/kg, day 12",493 ± 74 mm^3
same,Tumor Volume,"[1]; Nepicastat 48 mg/kg, day 14",795 ± 129 mm^3
same,Tumor Volume,"[1]; Nepicastat 48 mg/kg, day 16","1,150 ± 188 mm^3"
same,T/C (%),"[1]; Nepicastat 48 mg/kg, day 19",65.8%
same,TGI (%) tumor growth inhibition,"[1]; Nepicastat 48 mg/kg, day 19",34.2%
same,Tumor Volume,"[1]; Nepicastat 48 mg/kg, day 19","1,992 ± 349 mm^3"
same,T/C (%),[1]; [7],66%
same,Tumor Volume,[1]; [7],1992 mm^3
same,Tumor Volume (mm^3),"[2]; Nepicastat 50 mg/kg, day 3",56.45 ± 4.42 mm^3
same,Tumor Volume (mm^3),"[2]; Nepicastat 50 mg/kg, day 6",107.64 ± 2.13 mm^3
same,Tumor Volume (mm^3),"[2]; Nepicastat 50 mg/kg, day 9",212.98 ± 15.54 mm^3
same,Tumor Volume (mm^3),"[2]; Nepicastat 50 mg/kg, day 13",369.64 ± 18.63 mm^3
same,Tumor Volume (mm^3),"[2]; Nepicastat 50 mg/kg, day 16",552.37 ± 34.69 mm^3
same,Tumor Volume (mm^3),"[2]; Nepicastat 50 mg/kg, day 19",677.68 ± 29.38 mm^3
same,Tumor Volume (mm^3),"[2]; Nepicastat 50 mg/kg, day 22",880.28 ± 33.41 mm^3
same,Tumor Volume (mm^3),"[2]; Nepicastat 50 mg/kg, day 22, listed as nepicastat",880.28 mm^3
same,T/C (%),"[2]; Nepicastat 50 mg/kg, day 22",51.21%
same,TGI (%) tumor growth inhibition,"[2]; Nepicastat 50 mg/kg, day 22",48.79%
same,Tumor Volume (mm^3),"[2]; Nepicastat 100 mg/kg, day 3",56.41 ± 3.96 mm^3
same,Tumor Volume (mm^3),"[2]; Nepicastat 100 mg/kg, day 6",120.60 ± 12.92 mm^3
same,Tumor Volume (mm^3),"[2]; Nepicastat 100 mg/kg, day 9",238.00 ± 22.62 mm^3
same,Tumor Volume (mm^3),"[2]; Nepicastat 100 mg/kg, day 13",384.72 ± 54.05 mm^3
same,Tumor Volume (mm^3),"[2]; Nepicastat 100 mg/kg, day 16",658.54 ± 71.96 mm^3
same,Tumor Volume (mm^3),"[2]; Nepicastat 100 mg/kg, day 19",1049.88 ± 145.91 mm^3
same,Tumor Volume (mm^3),"[2]; Nepicastat 100 mg/kg, day 22",1275.47 ± 154.93 mm^3
same,Tumor Volume (mm^3),"[2]; Nepicastat 100 mg/kg, day 22, listed as nepicastat",1275.47 mm^3
same,T/C (%),"[2]; Nepicastat 100 mg/kg, day 22",74.20%
same,TGI (%) tumor growth inhibition,"[2]; Nepicastat 100 mg/kg, day 22",25.80%
same,Cmax,[3],~200 nM
same,T/C (%),"[4]; EMT-6 model, End",76.91%
same,TGI (%) tumor growth inhibition,"[4]; EMT-6 model, End",23.09%
same,Tumor Volume (mm^3) in EMT-6 Model,[4]; day 5 (Initiation),61.55 ± 1.37 mm^3 and 61.55 ± 3.06 mm^3
same,Tumor Volume (mm^3) in EMT-6 Model,[4]; day 8,110.11 ± 2.13 mm^3
same,Tumor Volume (mm^3) in EMT-6 Model,[4]; day 12,229.32 ± 21.67 mm^3
same,Tumor Volume (mm^3) in EMT-6 Model,[4]; day 15,385.24 ± 66.33 mm^3
same,Tumor Volume (mm^3) in EMT-6 Model,[4]; day 19 (End),697.23 ± 35.90 mm^3
same,T/C (%),"[5]; CT-26 model, End",65.70%
same,TGI (%) tumor growth inhibition,"[5]; CT-26 model, End",34.30%
same,Tumor Volume (mm^3) in CT-26 Model,[5]; day 7 (Initiation),59.35 ± 1.65 mm^3 and 59.35 ± 3.69 mm^3
same,Tumor Volume (mm^3) in CT-26 Model,[5]; day 10,86.00 ± 11.91 mm^3
same,Tumor Volume (mm^3) in CT-26 Model,[5]; day 14,314.14 ± 33.19 mm^3
same,Tumor Volume (mm^3) in CT-26 Model,[5]; day 17,501.46 ± 50.04 mm^3
same,Tumor Volume (mm^3) in CT-26 Model,[5]; day 21 (End),1087.75 ± 163.63 mm^3
same,Cell viability (%),"[6]; 0.1 μM, 72 h, H22 cells",103.2%
same,anti-proliferative effect on H22 cell line,"[6]; 1 μM and 0.1, in words",did not show any significant anti-proliferative effects
same,viability at 0.1 µM,"[6]; Mus musculus, H22, 72 h, 0.1 μM, 72 h, H22 cells, read-out: Cell viability (%)",102%
same,viability at 1 µM,"[6]; Mus musculus, H22, 72 h, 1 μM, 72 h, H22 cells, read-out: Cell viability (%)",94.4%
same,IC50,"[6]; Mus musculus, calculated from FIG. 1, read-out: IC50 in H22 murine hepatocarcinoma cells proliferation",52.6 µM

# — patent US11185542B2, “Uses of dopamine beta-hydroxylase (DBH) inhibitors and serotonin receptor (5-HT) antagonists for the treatment of cancer” (Jiangsu Yahong Meditech Co., Ltd., priority 2016, dated 2021)
